Results published in patent publication US20160074428A1, “COMPOSITIONS AND METHODS FOR THE TREATMENT OF HUMAN IMMUNODEFICIENCY VIRUS INFECTION” (THE CHILDREN'S HOSPITAL OF PHILADELPHIA, priority 2013, published 2016).
No end group written: not given here.

Columns and labels:
NK1R = target: T1, NK1R (Homo sapiens, UniProt P25103); experiment: Intracellular calcium measurement by flow cytometry (Fluo-4/Fura-red ratio) in monocytes; assay type: cell-based
T1 construct: endogenous in cells; host or cells: freshly isolated human blood monocytes (gated within PBMC)
T1 sequence (P25103 1-311): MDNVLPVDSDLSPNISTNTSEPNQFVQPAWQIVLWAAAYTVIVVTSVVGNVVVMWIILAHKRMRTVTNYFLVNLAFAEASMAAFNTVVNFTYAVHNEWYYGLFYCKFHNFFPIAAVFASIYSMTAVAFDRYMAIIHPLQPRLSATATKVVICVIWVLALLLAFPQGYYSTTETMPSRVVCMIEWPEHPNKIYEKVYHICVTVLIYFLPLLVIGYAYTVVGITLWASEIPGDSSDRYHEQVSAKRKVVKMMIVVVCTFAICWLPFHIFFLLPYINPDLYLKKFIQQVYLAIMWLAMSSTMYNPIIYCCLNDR
Method: (§1) Intracellular calcium measurements. Freshly isolated monocytes were washed in Hank's balanced salt solution (HBSS) containing 1 mM calcium chloride then loaded with Fluo-4 AM (2 μM) and Fura-red AM (2 μM). Intracellular calcium recordings were performed using the Accuri C6 Analyzer (BD Biosciences, San Jose, Calif.). Fluorescence intensities were recorded in FL1-A (Fluo-4 AM) and FL3-A (Fura-red AM) channels. Intracellular calcium measurements were quantified by calculating the ratio between FL1-A/FL3-A values as a derived parameter in FlowJo 7.6.5 for Windows (Treestar Inc., Ashland, Oreg.) as previously described (1).
Gating on lymphocyte and monocyte populations was performed based of light scattering properties of the cells (FIG. 1A).

HIV-Bal = HIV-Bal infection of macrophages, HIV gag mRNA by real time RT-PCR; assay type: cell-based, HIV-1; settings: 0, 2, 10 or 20 μg/ml HbHp complex, 7 days postinfection
Method: HIV infection. Macrophages were incubated with HIV-Bal virus overnight, and then extensively washed to remove unbound virus. The culture medium and the reagents were replaced twice weekly. At days 5, 7, 9 and 11 post HIV infection, cellular RNA was extracted from the MDM for assessment of HIV gag mRNA expression using real time RT-PCR assays.
RNA Extraction and Real-Time RT PCR Assays. Total RNA was extracted from macrophages using RNeasy kit (Qiagen), and the potential DNA contamination was eliminated by on-column DNase digestion as instructed by the manufacturer (Qiagen). RNA concentration was determined by Qubit fluorometer using Quant-iT RNA Assay kit (Invitrogen, Eugene, Oreg.).
Total RNA (1 μg) was reverse transcribed using AffinityScript QPCR cDNA Synthesis kit ([…], Cedar Creek, Tex.) with random primer as instructed by the manufacture. Reverse transcriptase negative controls were used in order to control for genomic DNA contamination. 1 μl of the resulting cDNA was used as a template for real-time PCR amplification.
RNA Interference (RNAi). RNAi CD163 pool and control RNAi was purchased from Santa Cruz Biotechnologies. The siRNAs pool was transfected into macrophages with Lipofectamine RNAimax (Invitrogen), following the manufacturer's protocol. Experiments were carried out 48 h after transfection.

[1] = test system: HIV-GFP-tagged reporter virus pSF162R3 Nef+; experiment: Infection of macrophages with HIV-GFP-tagged reporter virus, GFP fluorescence; assay type: cell-based; settings: 0, 2, 10 or 50 μg/ml HbHp complex, 7 days postinfection
Method: FIG. 5. Effect of HbHp-complexes on HIV infection in macrophages. Hb and Hp were added to macrophages in a 1:1 molar ratio and incubated for 2 h at 37° C. a) Macrophages, treated with 0, 2, 10 or 20 μg/ml of HbHp complex and infected with HIV-BaL, were assayed 7 days postinfection for HIV GAG by real time RT PCR. b) Macrophages, treated with 0, 2, 10 or 50 μg/ml of HbHp complex and infected with HIV-GFP-tagged reported virus, were assayed 7 days postinfection for GFP fluorescence. c) Representative images of macrophages, treated with 0, 2, 10, and 50 μg/ml of HbHp complex and infected with HIV-GFP-tagged reported virus 7 days postinfection. Average results of three independent experiments are presented as mean±SD.
Virus. The M-tropic HIV-1 R5 strain Bal was obtained from the NIH AIDS Reagent Program. The HIV-GFP-tagged reporter virus pSF162R3 Nef+, was made based on HIV-SF162 strain and was a gift from Dr. Amanda Brown (John Hopkins School of Medicine, Baltimore, Md.) (45).
Microscopy. Macrophages were infected with HIV-GFP-tagged reported virus pSF162R3 Nef+. […] GFP intensity was quantified using ImageJ (National Institute of Mental Health, Bethesda, Md., USA).

lymphocytes = experiment: Intracellular calcium measurement by flow cytometry in lymphocytes; assay type: cell-based, human; settings: SP at concentrations as high as 30 μM; data not shown
Method: as §1
SP induces intracellular calcium increase in human monocytes. Our previous studies have shown that in U373MG cell NK1R stimulates the release of Ca^2+ from intracellular stores though activation of phospholipase C. To assess whether the effect of SP on monocytes is due to activation of NK1R we examined the levels of intracellular Ca^2+. We used a ratiometric calcium assay, where PBMC were loaded with Fluo-4 and Fura-red, then stimulated again with SP or appropriate agonist. Gating on lymphocyte and monocyte populations was performed based of light scattering properties of the cells (FIG. 1A). […] This pharmacology profile of NK1R, with high concentrations of SP required to elicit a response is consistent with the truncated form of NK1R.

CD163 = CD163 measurement by flow cytometry on monocytes/macrophages; assay type: cell-based, human; settings: for CD163 expression, time course: 10 μM SP
Method: CD163 measurement by flow cytometry. For time-course experiments, freshly isolated monocytes were stimulated with either IL-10 (20 ng/ml) or SP (10 μM) and after 0, 2, 4 and 6 days of culture the cells were detached and the expression of membrane-bound CD163 was quantified by flow cytometry. For the dose-response experiments, freshly isolated monocytes were stimulated with either IL-10 (0.2, 0.6, 2, 6 or 20 ng/ml) or SP (0.3, 1, 3, 10 or 30 μM) and after 4 days of culture the cells were detached for CD163 measurement. Macrophages were detached using Lidocaine (4 mg/ml) in HBSS with EDTA (1 mM) for 30 minutes at 37° C. Cells were labeled with anti-human CD163 antibody (clone R-20) conjugated with PE (Trillium Diagnostics, Scarborough, Me.) for 30 minutes at room temperature. After labeling, cells were washed and resuspended in Hank's balanced salt solution (HBSS). Flow cytometry experiments were performed on an Accuri C6 analyzer (BD Biosciences, San Jose, Calif.) in the Flow Cytometry Core Laboratory of the Children's Hospital of Philadelphia Research Institute.

HIV = settings: cited from earlier work

Molecule: C[C@@H](O[C@H]1OCCN(Cc2n[nH]c(=O)[nH]2)[C@H]1c1ccc(F)cc1)c1cc(C(F)(F)F)cc(C(F)(F)F)c1 [Aprepitant, aprepitant]
- effect on SP induced calcium response (NK1R; pre-treatment with 50 μM for 15 minutes before adding 10 μM SP): abolished SP induced calcium response

Molecule: Hb-Hp complexes: hemoglobin-haptoglobin complexes, Hb and Hp added in a 1:1 molar ratio; ligand of CD163
- HIV infection of macrophages (HIV GAG, RT PCR) (HIV-Bal): concentration-dependent decrease
- number of infected cells/well (GFP fluorescence) [1]: concentration-dependent decrease

Molecule: Neurokinin B [NKB]
- Ca2+ response to agonist (NK1R; 10 μM agonist, SP induced a response in the same samples): failed to induce Ca^2+ responses

Molecule: Substance P (RPKPQQFFGLM; ends and bridges not checked; UniProt P20366 58-68, looked up) [SP, undecapeptide neurotransmitter of the tachykinin family; purchased from Sigma]
- intracellular Ca2+ increase in lymphocytes (lymphocytes): did not induce intracellular Ca^2+ increase
- extent of CD163 induction compared with IL-10 (CD163): lower extent than that induced by IL-10
- CD163 expression, time course (CD163; 4 days): significant increase
- CD163 expression, time course (CD163; 6 days): did not persist
- CD163 expression, dose response (CD163; SP 0.3-10 μM, 4 days): significant increase
- levels of membrane bound CD163 with increasing doses (CD163; monocytes in AIM V medium without FBS, 4 days after treatment): progressively higher
- effect on HIV infection of MDM (HIV): promotes HIV infection

B1: interleukin-10 (protein, UniProt P22301 19-178, looked up)
Interleukin-10: SPGQGTQSENSCTHFPGNLPNMLRDLRDAFSRVKTFFQMKDQLDNLLLKESLLEDFKGYLGCQALSEMIQFYLEEVMPQAENQDPDIKAHVNSLGENLKTLRLRLRRCHRFLPCENKSKAVEQVKNAFNKLQEKGIYKAMSEFDIFINYIEAYMTMKIRN
notes: anti-inflammatory mediator that upregulates CD163 expression
- CD163 expression, dose response (CD163; 0.2 ng/ml IL-10, 4 days of culture): significant increase
- expression of CD163, time course (CD163; 20 ng/ml IL-10, 2 days): significant increase
- CD163 expression, dose response (CD163; 20 ng/ml IL-10, 4 days of culture): had not induced maximal increase
- expression of CD163, time course (CD163; 20 ng/ml IL-10, days 4 and 6, compared with day 2): higher
